# In patent US20080004222A1, “Antitumorigenic Drug Combination” (priority 2006, published 2008):
# Non-standard residues stand in square brackets, D forms with d. d(aIle) = CC[C@H](C)[C@@H](N)C(=O)O; Nva = CCC[C@H](N)C(=O)O; Sar = CNCC(=O)O
# Columns and labels:
# [1] = tested on: SMS-KCNR MYCN-amplified NB cell line xenografts; assay: Neuroblastoma xenograft study, SMS-KCNR model; assay type: in vivo, athymic nude mice; details: SMS-KCNR xenografts about 70 mm^3, 20 days of treatment, each agent alone and in combination
# Protocol: (§1) SMS-KCNR, NMB, and NBL-W-S MYCN amplified NB cell lines were used in this study. Cells were grown at 5% CO2 in RPMI 1640 (Invitrogen, Carlsbad, Calif.) supplemented with 10% heat-inactivated fetal bovine serum, L-Glutamine, and antibiotics.
# (§2) Lyophilized peptides with the sequence: acetyl-sarcosine-glycine-valine-D-alloisoleucine-threonine-norvaline-isoleucine-arginine-proline-ethylamide were dissolved in sterile 5% dextrose and stored at 4° C.
# (§3) Female 4-6 week old homozygous athymic nude mice (Harlan, Madison, Wis.) were inoculated s.c. into the right flank with ^1×107SMS-KCNR or 1.25×10^7 NMB cells. Once tumors were palpable (70 mm^3), mice were treated 1×/day for 20 days with either acetyl-sarcosine-glycine-valine-Dalloisoleucine-threonine-norvaline-isoleucine-arginine-proline-ethylamide (IP, 40 mg/kg), VPA (IP, 400 mg/kg) or acetyl-sarcosine-glycine-valine-D-alloisoleucine-threonine-norvaline-isoleucine-arginine-proline-ethylamide and VPA (in combination). In separate experiments, treatment was started after the animals developed larger tumors>380 mm^3 in size and treatment was continued for 10 days. Tumor volumes were measured twice a week and calculated using the formula: tumor volume =(length X width^2)/2(25). The Student's t-test was used to compare tumor size in the control and treatment groups. Mice were sacrificed after 20 or 10 days of treatment, respectively. […]
# [2] = tested on: NMB MYCN-amplified NB cell line xenografts; assay: Neuroblastoma xenograft study, NMB xenografts; assay type: in vivo, athymic nude mice; details: NMB xenografts about 70 mm^3, 20 days of treatment, each agent alone and in combination
# Protocol: as §1, §2, §3
# large NB xenografts = details: large xenografts >380 mm^3, after 10 days of treatment; peptide p<0.01, VPA p<0.001; FIG. 1C
# Protocol: as §1, §2, §3
Compound,tumor growth (result in words) [1],tumor growth (result in words) [2],tumor volumes reduced (large NB xenografts)
Ac-[Sar]GV[d(aIle)]T[Nva]IRP-NHEt,Tumor growth was inhibited,Tumor growth was inhibited,33%
"CCCC(CCC)C(=O)O [VPA, valproic acid]",Tumor growth was inhibited,Tumor growth was inhibited,44%
